For experiment [1], the system named is HIV-1 IIIB. In kind it is cell-based.
A further experiment concerns HIV-1. The note with it: cited from earlier work.
Another experiment concerns the target NTD of capsid. The note with it: affinity for the NTD; cited from earlier work.
Experiment [2] concerns HIV-1 IIIB. Briefly: Antiviral activity. In kind it is cell-based. The note with it: Table 1; HIV-1 IIIB in MT-2 cells; 50% reduction in p24 production; ± SD.

Read-outs that look alike come from different tables or passages of the source.

As to `Cc1ccc2[nH]c(=O)c(CN(Cc3ccco3)C(=O)c3ccc(Cl)cc3)cc2c1` [Compound 6], in the experiment with HIV-1 IIIB [1] (producer MT-2 cells treated with 2.5 μM, p24-normalized, TCID50), the “percentage of infectivity with respect to the untreated control” value is “about 60%”. In addition, the “infectivity of virions released in the supernatant” value in the experiment with HIV-1 IIIB [1] (producer MT-2 cells treated with 5 μM) is listed as “no viral infectivity”.
Regarding `Cc1ccc(NC(=O)NCCSCc2ccc(CN(C)C)o2)cc1Cl` [CAP-1], in the experiment with HIV-1, the “HIV-1 inhibition in viral infectivity assays” value is reported as “dose-dependent HIV-1 inhibition”, the “infectivity of particles produced after treatment” value was “poorly infectious” and the “inhibition of virus production” value is given as “virtually no inhibition of virus production”. Further, on NTD of capsid, the Kd (commonly the equilibrium constant for the complex coming apart) was around 800 µM.
As to “N-Furan-2-ylmethyl-6-methoxy-N-(6-methyl-2-oxo-1,2-dihydro-quinolin-3-ylmethyl)-nicotinamide [Compound 19]”, in the experiment with HIV-1 IIIB [2], the IC50 (in general, the point on the concentration scale where inhibition reaches its midpoint) was above 24.8 µM.
For the molecule `c1cc(CN2CCCNCCNCCCNCC2)ccc1CN1CCCNCCNCCCNCC1` [AMD3100], the “infectivity of virions released in the supernatant” value with HIV-1 IIIB [1] (producer MT-2 cells treated with 1 μg/mL, positive control) is on record as “no viral infectivity”.

Source of the values: paper PMC3034313 (Bioorganic & medicinal chemistry, 2010).
